Measurements reported in patent US11351170B2, “Substituted pyrimidines as CDK4/6 inhibitors” (priority 2017, dated 2022).
Values joined by “and” are separate entries in the source; they are usually repeats but may differ in a detail not shown here. Identical values can stand only once. Like-named read-outs stand apart in the source and are kept apart here.

How the values were obtained:
[1] = Mouse pharmacokinetics (p.o. and i.v.)
Protocol: Blood samples were taken at 0.083, 0.25, 0.5, 1.0, 3.0, 6.0 and 24 hours post i.v. dosing and at 0.25, 0.5, 1.0, 3.0, 6.0 and 24 hours post p.o. dosing. The plasma concentration of compounds were determined by HPLC.

[2] = Metabolic stability in mouse liver microsomes; type: in vitro ADME; settings: mouse liver microsomes 0.5 mg/mL
Protocol: (§1) Metabolic stability of compounds is assessed at […] with human, rat, mouse, dog, and monkey liver microsomes (0.5 mg/mL). Compound and protein are equilibrated at 37° C. for 5 min prior to reaction initiation with co-factor NADPH. […] After quenching and centrifugation, supernatants were analyzed by LC-MS with methods specific to compounds tested.

[3] = Metabolic stability in human liver microsomes; type: in vitro ADME; settings: human liver microsomes 0.5 mg/mL
Protocol: as §1

[4] = Metabolic stability in rat liver microsomes; type: in vitro ADME; settings: rat liver microsomes 0.5 mg/mL
Protocol: as §1

[5] = Metabolic stability in monkey liver microsomes; type: in vitro ADME; settings: monkey liver microsomes 0.5 mg/mL
Protocol: as §1

CDK5 = CDK5 (Homo sapiens (Human), UniProt Q00535); assay: CDK5 Inhibition Assay; type: biochemical
Protocol: (§2) CDK5 Inhibition Assay. […] The same volume of DMSO was adopted as high control. 20 nL of the test compound solution in DMSO were dispensed into a new 384-well assay plate by Echo 550. […] Kinase assay buffer supplemented with substrate peptides was employed as low control to monitor the background. 40 µM ATP was prepared in kinase assay buffer containing and 5 μL of ATP solution was added to each well to start the reaction. The assay plate was incubated at 25° C. for 90 minutes and the reaction was stopped by adding 40 μL of 0.5 M EDTA.

HS68 cells = HS68 cells treated for 24 hours
Protocol: HS68 cells (human skin fibroblast cell line, ATCC) were treated for 24 hours with compounds of the present invention at 0, 1, 3, 10, 30, 100, 300, or 1,000 nmol/L final concentration. Cells were harvested and fixed in ice-cold 70% ethanol (Sigma-Aldrich). Fixed cells were washed with PBS, stained with 40 μg/mL propidium iodide (Thermofisher Scientific), 10 g RNAseA (Sigma-Aldrich) in PBS-CMF (calcium magnesium free). Samples were processed using flow cytometer (Fisher), and cell-cycle analysis was completed using FlowJo software (Tree Star).

CDK2 = CDK2 (Homo sapiens (Human), UniProt P24941); assay: CDK2 Inhibition Assay; type: biochemical
Protocol: as §2, with “CDK2 Inhibition” for “CDK5 Inhibition”, “background. 400” for “background. 40”
Phosphorylated fluorescent-tagged peptides were differentiated from non-phosphorylated peptides by separating using Caliper EZ Reader II and the detection was directly converted to conversion ratio.

[6] = Metabolic stability in dog liver microsomes; type: in vitro ADME; settings: dog liver microsomes 0.5 mg/mL
Protocol: as §1

CDK6 = CDK6 (Homo sapiens (Human), UniProt Q00534); assay: CDK6 Inhibition Assay; type: biochemical
Protocol: (§3) CDK6 Inhibition Assay. […] The same volume of DMSO was adopted as high control (HC). 20 nL compound solution in DMSO (diluted) were dispensed into a new 384-well assay plate by Echo 550. […] Kinase assay buffer supplemented with substrate peptides was employed as low control (LC) to monitor the background. 400 µM ATP was prepared in kinase assay buffer containing and 15 μL of ATP solution was added to each well to start the reaction. The assay plate was incubated at 25° C. for 90 minutes and the reaction was stopped by adding 40 μL of 0.5 M EDTA.

CDK4 = CDK4 (Homo sapiens (Human), UniProt P11802); assay: CDK4 Inhibition Assay; type: biochemical
Protocol: as §3, with “CDK4” for “CDK6”, “nL of” for “nL”, “anew” for “a new”
Phosphorylated fluorescent-tagged peptides were differentiated from non-phosphorylated peptides by separating using Caliper EZ Reader II and the detection was directly converted to conversion ratio (ratio of phosphorylated to non-phosphorylated peptide).
For estimation of IC50, the % substrate conversion values are transformed to % relative activity by applying the following equation: […]

HSPCs = settings: CDK4/6 dependent subsets of healthy cells such as HSPCs; cited from earlier work

Chain of CDK4 (P11802 whole entry): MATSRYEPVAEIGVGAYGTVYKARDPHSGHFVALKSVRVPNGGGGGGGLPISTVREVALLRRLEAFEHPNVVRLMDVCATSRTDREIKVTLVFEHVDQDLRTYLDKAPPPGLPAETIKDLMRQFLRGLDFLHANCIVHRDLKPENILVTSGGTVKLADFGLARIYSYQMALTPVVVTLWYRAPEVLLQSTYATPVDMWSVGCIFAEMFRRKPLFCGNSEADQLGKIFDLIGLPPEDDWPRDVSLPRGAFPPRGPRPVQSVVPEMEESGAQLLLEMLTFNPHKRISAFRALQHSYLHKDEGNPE
Chain of CDK4 (P30281 whole entry partner): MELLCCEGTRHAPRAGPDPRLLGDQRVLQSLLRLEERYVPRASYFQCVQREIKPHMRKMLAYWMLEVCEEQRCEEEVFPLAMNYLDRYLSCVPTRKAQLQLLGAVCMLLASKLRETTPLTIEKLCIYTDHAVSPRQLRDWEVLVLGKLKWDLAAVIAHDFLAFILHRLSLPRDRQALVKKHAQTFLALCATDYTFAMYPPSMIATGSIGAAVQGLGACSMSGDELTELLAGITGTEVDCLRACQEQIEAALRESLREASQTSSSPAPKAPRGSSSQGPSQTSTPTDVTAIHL
Chain of CDK6 (Q00534 whole entry): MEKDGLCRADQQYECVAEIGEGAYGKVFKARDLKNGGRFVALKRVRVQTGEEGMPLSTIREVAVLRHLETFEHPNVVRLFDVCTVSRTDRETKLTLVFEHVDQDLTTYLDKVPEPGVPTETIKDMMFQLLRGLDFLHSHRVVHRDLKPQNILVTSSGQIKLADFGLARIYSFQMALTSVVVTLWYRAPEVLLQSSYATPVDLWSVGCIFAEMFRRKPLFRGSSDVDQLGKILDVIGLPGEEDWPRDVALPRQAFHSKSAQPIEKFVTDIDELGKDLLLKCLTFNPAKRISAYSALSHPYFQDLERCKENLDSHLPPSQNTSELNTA
Chain of CDK6 (P30281 whole entry partner): as the sequence (P30281 whole entry partner) above
Chain of CDK5 (Q00535 whole entry): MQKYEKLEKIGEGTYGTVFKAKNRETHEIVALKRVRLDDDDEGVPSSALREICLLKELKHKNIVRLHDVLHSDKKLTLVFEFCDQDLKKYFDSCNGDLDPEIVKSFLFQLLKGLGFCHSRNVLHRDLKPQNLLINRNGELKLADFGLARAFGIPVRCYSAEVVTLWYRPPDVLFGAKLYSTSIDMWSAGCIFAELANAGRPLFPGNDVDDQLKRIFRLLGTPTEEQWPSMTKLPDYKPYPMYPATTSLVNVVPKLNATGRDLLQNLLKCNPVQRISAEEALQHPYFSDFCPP
Chain of CDK5 (Q15078 99-307 partner): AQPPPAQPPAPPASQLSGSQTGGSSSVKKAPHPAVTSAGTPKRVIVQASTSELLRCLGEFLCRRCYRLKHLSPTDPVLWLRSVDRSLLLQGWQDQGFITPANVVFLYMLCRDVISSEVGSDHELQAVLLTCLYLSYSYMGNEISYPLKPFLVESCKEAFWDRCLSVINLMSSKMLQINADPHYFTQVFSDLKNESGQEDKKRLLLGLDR

| Compound | IC50 (CDK5) | IC50 (CDK2; read-out: CDK2 IC50) | IC50 (CDK6) | IC50 (CDK4) | further results |
| --- | --- | --- | --- | --- | --- |
| CCN1CCC(COc2ccc(Nc3ncc(F)c(-c4cc(F)c5nc6n(c5c4)C(C)(C)CC6)n3)nc2)CC1 [Example 8, N-(5-((1-ethylpiperidin-4-yl)methoxy)pyridin-2-yl)-5-fluoro-4-(5-fluoro-1,1-dimethyl-2,3-dihydro-1H-benzo[d]pyrrolo[1,2-a]imidazol-7-yl)pyrimidin-2-amine] | 705 nM | 368 nM | – | – | F ([1]; 10 mg/kg p.o. vs 2 mg/kg i.v.): 45.6%; AUC(0-t) ([1]; plasma, iv, 2 mg/kg): 2110 ng·h/mL; Vd ([1]; plasma, iv, 2 mg/kg): 3.71 L/kg; clearance ([1]; plasma, iv, 2 mg/kg): 15.7 mL/min/kg; half-life ([1]; plasma, iv, 2 mg/kg): 3.36 h; AUC(0-t) ([1]; plasma, po, 10 mg/kg): 4820 ng·h/mL; Cmax ([1]; plasma, po, 10 mg/kg): 340 ng/mL; Tmax ([1]; plasma, po, 10 mg/kg): 6 h; half-life ([2]; NADPH, 37° C.): 0.45 h; CLint scaled ([2]; scaled): 202 mL/min/kg; half-life ([3]; NADPH, 37° C.): 1.34 h; CLint scaled ([3]; scaled): 21.7 mL/min/kg; half-life ([4]; NADPH, 37° C.): 1.29 h; CLint scaled ([4]; scaled): 32.2 mL/min/kg; half-life ([5]; NADPH, 37° C.): 0.223 h; CLint scaled ([5]; scaled): 151 mL/min/kg; G1 % (max) (HS68 cells): 79.35%; IC50 (CDK2): 285 nM; half-life ([6]; NADPH, 37° C.): 0.402 h; CLint scaled ([6]; scaled): 143 mL/min/kg |
| CCN1CCC(c2ccc(Nc3ncc(F)c(-c4cc(F)c5nc6n(c5c4)C(C)(C)CC6)n3)nc2)CC1 [Example 3, N-(5-(1-ethylpiperidin-4-yl)pyridin-2-yl)-5-fluoro-4-(5-fluoro-1,1-dimethyl-2,3-dihydro-1H-benzo[d]pyrrolo[1,2-a]imidazol-7-yl)pyrimidin-2-amine, reference compound] | 38.3 nM | 114 nM and 91 nM | 1.93 nM | 0.08 nM | – |
| CC1(C)CCc2nc3c(F)cc(-c4nc(Nc5ccc(OC6CCN(CCO)CC6)cn5)ncc4F)cc3n21 [Example 14, 2-(4-(6-(5-fluoro-4-(5-fluoro-1,1-dimethyl-2,3-dihydro-1H-benzo[d]pyrrolo[1,2-a]imidazol-7-yl)pyrimidin-2-ylamino)pyridin-3-yloxy)piperidin-1-yl)ethanol] | 213 nM | 70.3 nM | 2.72 nM | 0.25 nM | – |
| CC(=O)c1c(C)c2cnc(Nc3ccc(N4CCNCC4)cn3)nc2n(C2CCCC2)c1=O [PD-0332991] | – | – | – | – | cell cycle arrest (HSPCs): transient cell cycle arrest |
| CCN1CCN(c2ccc(Nc3ncc(F)c(-c4cc(F)c5nc6n(c5c4)C(C)(C)CC6)n3)nc2)CC1 [Example 15, N-(5-(4-ethylpiperazin-1-yl)pyridin-2-yl)-5-fluoro-4-(5-fluoro-1,1-dimethyl-2,3-dihydro-1H-benzo[d]pyrrolo[1,2-a]imidazol-7-yl)pyrimidin-2-amine, reference compound] | 46.8 nM | 117 nM and 21.6 nM | 0.88 nM | 0.07 nM | – |
| CCN1CCC(COc2ccc(Nc3cc(-c4cc(F)c5nc6n(c5c4)C(C)(C)CC6)c(F)cn3)nc2)CC1 [Example 9, N-(5-((1-ethylpiperidin-4-yl)methoxy)pyridin-2-yl)-5-fluoro-4-(5-fluoro-1,1-dimethyl-2,3-dihydro-1H-benzo[d]pyrrolo[1,2-a]imidazol-7-yl)pyridin-2-amine] | 11.3 nM | 24.7 nM | 2.9 nM | 0.1 nM | IC50 (CDK2): 14.7 nM |
| CN1CCN(c2ccc(Nc3ncc4cc5n(c4n3)C3(CCCCC3)CNC5=O)nc2)CC1 [Example G1T28] | – | – | – | – | cell cycle arrest (HSPCs): transient cell cycle arrest |
| CN(C)[C@H]1CCN(c2ccc(Nc3ncc(F)c(-c4cc(F)c5nc6n(c5c4)C(C)(C)CC6)n3)nc2)C1 [Example 7, (S)—N-(5-(3-(dimethylamino)pyrrolidin-1-yl)pyridin-2-yl)-5-fluoro-4-(5-fluoro-1,1-dimethyl-2,3-dihydro-1H-benzo[d]pyrrolo[1,2-a]imidazol-7-yl)pyrimidin-2-amine] | 50.6 nM | 65.5 nM | 3.96 nM | 0.18 nM | IC50 (CDK2): 16.1 nM |
| CN1CCC(OCc2ccc(Nc3ncc(F)c(-c4cc(F)c5nc6n(c5c4)C(C)(C)CC6)n3)nc2)CC1 [Example 13, 5-fluoro-4-(5-fluoro-1,1-dimethyl-2,3-dihydro-1H-benzo[d]pyrrolo[1,2-a]imidazol-7-yl)-N-(5-((1-methylpiperidin-4-yloxy)methyl)pyridin-2-yl)pyrimidin-2-amine] | 433 nM | 174 nM | 3.92 nM | 0.25 nM | – |
| CCN1CCN(Cc2ccc(Nc3ncc(F)c(-c4cc(F)c5nn6c(c5c4)CCC6)n3)nc2)CC1 [Example 16, N-(5-((4-ethylpiperazin-1-yl)methyl)pyridin-2-yl)-5-fluoro-4-(6-fluoro-2,3-dihydro-1H-pyrrolo[1,2-b]indazol-8-yl)pyrimidin-2-amine] | > 10000 nM | > 10000 nM | 93.7 nM | 9.46 nM | – |
| CC1(C)CCc2nc3c(F)cc(-c4nc(Nc5ccc(OCC6CCN(CCCO)CC6)cn5)ncc4F)cc3n21 [Example 11, 3-(4-((6-(5-fluoro-4-(5-fluoro-1,1-dimethyl-2,3-dihydro-1H-benzo[d]pyrrolo[1,2-a]imidazol-7-yl)pyrimidin-2-ylamino)pyridin-3-yloxy)methyl)piperidin-1-yl)propan-1-ol] | 128 nM | 44.9 nM | 1.02 nM | 0.11 nM | – |
| CN1CCC(Oc2ccc(Nc3ncc(F)c(-c4cc(F)c5nc6n(c5c4)C(C)(C)CC6)n3)nc2)CC1 [Example 10, 5-fluoro-4-(5-fluoro-1,1-dimethyl-2,3-dihydro-1H-benzo[d]pyrrolo[1,2-a]imidazol-7-yl)-N-(5-(1-methylpiperidin-4-yloxy)pyridin-2-yl)pyrimidin-2-amine] | 136 nM | 64.1 nM | 2.46 nM | 0.26 nM | – |
| CC1(C)CCc2nc3c(F)cc(-c4nc(Nc5ccc6c(n5)CCN(C(=O)CO)C6)ncc4F)cc3n21 [Example 5, 1-(2-(5-fluoro-4-(5-fluoro-1,1-dimethyl-2,3-dihydro-1H-benzo[d]pyrrolo[1,2-a]imidazol-7-yl)pyrimidin-2-ylamino)-7,8-dihydro-1,6-naphthyridin-6 (5H)-yl)-2-hydroxyethanone, reference compound] | 36.8 nM | 17.6 nM | 1.87 nM | 0.12 nM | – |
| CN(C)[C@H]1CCN(C(=O)c2ccc(Nc3ncc(F)c(-c4cc(F)c5nc6n(c5c4)C(C)(C)CC6)n3)nc2)C1 [Example 6, (S)-(3-(dimethylamino)pyrrolidin-1-yl)(6-(5-fluoro-4-(5-fluoro-1,1-dimethyl-2,3-dihydro-1H-benzo[d]pyrrolo[1,2-a]imidazol-7-yl)pyrimidin-2-ylamino)pyridin-3-yl)methanone] | 19.1 nM | 20.4 nM | 1.19 nM | 0.2 nM | IC50 (CDK2): 5.62 nM |
| CN1CCC(COc2ccc(Nc3ncc(F)c(-c4cc(F)c5nc6n(c5c4)C(C)(C)CC6)n3)nc2)CC1 [Example 12, 5-fluoro-4-(5-fluoro-1,1-dimethyl-2,3-dihydro-1H-benzo[d]pyrrolo[1,2-a]imidazol-7-yl)-N-(5-((1-methylpiperidin-4-yl)methoxy)pyridin-2-yl)pyrimidin-2-amine] | 159 nM | 55.2 nM | 1.89 nM | 0.11 nM | – |
